According to ChEMBL document CHEMBL1765027, “5'-Modified pyrimidine nucleosides as inhibitors of ribonuclease A” (Bioorg Med Chem, 2011):
pKi: −log10 of the molar value. Activity calls are given as the source filed them. No cut-off for these calls is given here.

Experiments:
[1] = biological target: T1, Ribonuclease pancreatic (Bos taurus) (UniProt P61823); experiment: Inhibition of bovine pancreatic RNase A-mediated degradation of yeast tRNA assessed as residual tRNA band at 0.27 mM preincubated for 3 hrs measured after 30 mins of addition of tRNA using ethidium bromide staining by agarose gel based assay
T1 sequence (whole entry): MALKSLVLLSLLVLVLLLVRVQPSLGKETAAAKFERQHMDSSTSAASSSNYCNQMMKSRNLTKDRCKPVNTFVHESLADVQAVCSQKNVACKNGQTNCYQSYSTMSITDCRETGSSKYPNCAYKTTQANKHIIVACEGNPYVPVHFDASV

[2] = biological target: T1, Ribonuclease pancreatic (Bos taurus); experiment: Inhibition of bovine pancreatic RNase A-mediated degradation of yeast tRNA assessed as residual tRNA band at 0.18 mM preincubated for 3 hrs measured after 30 mins of addition of tRNA using ethidium bromide staining by agarose gel based assay
[3] = biological target: T1, Ribonuclease pancreatic (Bos taurus); experiment: Inhibition of bovine pancreatic RNase A-mediated degradation of yeast tRNA assessed as residual tRNA band at 0.09 mM preincubated for 3 hrs measured after 30 mins of addition of tRNA using ethidium bromide staining by agarose gel based assay
[4] = biological target: T2, Ribonuclease pancreatic (Bos taurus, UniProt P61823); experiment: Inhibition of bovine pancreatic RNase A using 2',3'-cCMP as a substrate by Lineweaver-Burk analysis
T2 sequence (P61823 whole entry): T1 sequence (whole entry)

[5] = biological target: T1, Ribonuclease pancreatic (Bos taurus); experiment: Inhibition of bovine pancreatic RNase A ribonucleolytic activity assessed as reduction of yeast tRNA degradation at 0.27 mM preincubated for 2 hrs by precipitation assay
[6] = biological target: T2, Ribonuclease pancreatic; experiment: Inhibition of bovine pancreatic RNase A using 2',3'-cCMP as a substrate by Dixon plot analysis
[7] = biological target: T2, Ribonuclease pancreatic; experiment: Inhibition of bovine pancreatic RNase A at pH 5.9 by spectrophotometric method

| Activity [1] | Activity [2] | Activity [3] | pKi [4] | inhibition [5] [%] | pKi [6] | pKi [7] | SMILES |
| --- | --- | --- | --- | --- | --- | --- | --- |
| Active | Active | Active | 4.12 | 37 | 4.21 | – | O=C(O)C1CCN(C[C@H]2O[C@@H](n3ccc(=O)[nH]c3=O)[C@H](O)[C@@H]2O)CC1 |
| – | – | – | – | – | – | 7.57 | Nc1ncnc2c1ncn2[C@@H]1O[C@H](CO)[C@@H](OP(=O)(O)OC[C@H]2O[C@@H](n3ccc(=O)[nH]c3=O)C[C@@H]2OP(=O)(O)OP(=O)(O)O)[C@H]1O |
| Active | Active | Active | 3.79 | 23 | 3.92 | – | Cc1cn([C@H]2C[C@H](O)[C@@H](CN3CCC(C(=O)O)CC3)O2)c(=O)[nH]c1=O |

The remaining lines, values behind:

| SMILES | Activity [1] | Activity [2] | Activity [3] | pKi [4] | inhibition [5] [%] | pKi [6] | pKi [7] |
| --- | --- | --- | --- | --- | --- | --- | --- |
| Cc1cn([C@H]2C=C[C@@H](CN3CCC(C(=O)O)CC3)O2)c(=O)[nH]c1=O | Active | Active | Active | 3.60 | 14 | – | – |
| Cc1cn([C@H]2C[C@@H](O)[C@@H](CN3CCC(C(=O)O)CC3)O2)c(=O)[nH]c1=O | Active | Active | Active | 3.64 | 18 | 3.74 | – |
